In patent US20230081390A1, “INHIBITORS OF RAF KINASES” (Kinnate Biopharma Inc., priority 2019, published 2023):

Target: human RAF1 (Homo sapiens, UniProt P04049)
Test: Protein kinase assay (33P-ATP filter binding), human RAF1, 10-dose IC50
Format: biochemical
Conditions: MEK1 (K97R) substrate 3 micromolar, ATP 10 micromolar, read-out: RAF-1 IC50
Outline: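 Human RAF1 phosphorylated human MEK1 (K97R) substrate at 3 µM with 10 µM ATP (³³P), in pH 7.5 HEPES buffer with MgCl2, EGTA, Brij35, BSA, Na3VO4 and DTT. Reactions ran for 2 hr at room temperature with P81 filter capture.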

Chain of human RAF1 (P04049 whole entry): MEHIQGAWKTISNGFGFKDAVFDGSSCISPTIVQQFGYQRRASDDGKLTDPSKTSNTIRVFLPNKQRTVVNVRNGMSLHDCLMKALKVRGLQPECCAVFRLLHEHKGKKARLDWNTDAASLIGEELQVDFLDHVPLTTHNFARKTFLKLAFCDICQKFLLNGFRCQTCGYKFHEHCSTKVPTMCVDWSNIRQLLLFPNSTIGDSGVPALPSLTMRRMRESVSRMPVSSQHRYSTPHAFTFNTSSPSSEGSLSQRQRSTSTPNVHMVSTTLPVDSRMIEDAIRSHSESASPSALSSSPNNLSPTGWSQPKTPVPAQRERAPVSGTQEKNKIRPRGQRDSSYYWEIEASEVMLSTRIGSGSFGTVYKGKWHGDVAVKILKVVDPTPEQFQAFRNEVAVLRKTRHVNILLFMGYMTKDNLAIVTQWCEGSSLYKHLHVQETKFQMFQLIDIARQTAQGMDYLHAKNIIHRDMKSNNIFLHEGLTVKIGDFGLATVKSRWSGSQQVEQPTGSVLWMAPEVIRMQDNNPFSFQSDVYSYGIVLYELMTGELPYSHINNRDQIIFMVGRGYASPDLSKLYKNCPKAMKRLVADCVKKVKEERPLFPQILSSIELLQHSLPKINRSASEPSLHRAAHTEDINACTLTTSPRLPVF

Compound | IC50
Cc1cc(F)c(NC(=O)N2CC[C@@H](C(C)(F)F)C2)cc1-c1cc(OCCO)nc(N2CCOCC2)c1 (single isomer, unassigned) [Example 34] | < 10 nM
Cc1ccc(NC(=O)N2CC[C@@H](OC(F)(F)F)C2)cc1-c1cc(O[C@@H](C)CO)nc(N2CCOCC2)c1 [Example 215, (3R)-N-[3-(2-[[(2S)-1-hydroxypropan-2-yl]oxy]-6-(morpholin-4-yl)pyridin-4-yl)-4-methylphenyl]-3-(trifluoromethoxy)pyrrolidine-1-carboxamide] | < 10 nM
Cc1ccc(NC(=O)N2C[C@@H](OC(F)(F)F)CO2)cc1-c1cc(OCCO)nc(N2CCOCC2)c1 [Example 144, (4R)-N-[3-[2-(2-hydroxyethoxy)-6-(morpholin-4-yl)pyridin-4-yl]-4-methylphenyl]-4-(trifluoromethoxy)-1,2-oxazolidine-2-carboxamide] | < 10 nM
Cc1ccc(NC(=O)N2CCC(CC(F)(F)F)C2)cc1-c1cc(OC[C@@H](O)CO)nc(N2CCOCC2)c1 (stereo partly drawn) [Example 179, N-(3-(2-((S)-2,3-dihydroxypropoxy)-6-morpholinopyridin-4-yl)-4-methylphenyl)-3-(2,2,2-trifluoroethyl)pyrrolidine-1-carboxamide] | < 10 nM
Cc1cc(F)c(NC(=O)N2CCC(C(F)(F)F)C2C)cc1-c1cc(OCCO)nc(N2CCOCC2)c1 (single isomer, unassigned) [Example 66, N-[2-fluoro-5-[2-(2-hydroxyethoxy)-6-(morpholin-4-yl)pyridin-4-yl]-4-methylphenyl]-2-methyl-3-(trifluoromethyl)pyrrolidine-1-carboxamide] | < 10 nM
Cc1cc(F)c(NC(=O)NC(C)CC(F)(F)F)cc1-c1cc(OCCO)nc(N2CCOCC2)c1 (stereo not drawn) [Example 57, 1-[2-fluoro-5-[2-(2-hydroxyethoxy)-6-(morpholin-4-yl)pyridin-4-yl]-4-methylphenyl]-3-(4,4,4-trifluorobutan-2-yl)urea] | < 10 nM
Cc1cc(F)c(NC(=O)N2CCC(C(C)C(F)(F)F)C2)cc1-c1cc(OCCO)nc(N2CCOCC2)c1 (single isomer, unassigned) [Example 102, N-[2-fluoro-5-[2-(2-hydroxyethoxy)-6-(morpholin-4-yl)pyridin-4-yl]-4-methylphenyl]-3-(1,1,1-trifluoropropan-2-yl)pyrrolidine-1-carboxamide] | < 10 nM
Cc1ccc(NC(=O)N2CCC3(C2)CC(F)(F)C3)cc1-c1cc(OCCO)nc(N2CCOCC2)c1 [Example 167, 2,2-difluoro-N-(3-(2-(2-hydroxyethoxy)-6-morpholinopyridin-4-yl)-4-methylphenyl)-6-azaspiro[3.4]octane-6-carboxamide] | < 10 nM
Cc1cc(F)c(NC(=O)N2CCC3C2C3C(F)(F)F)cc1-c1cc(OCCO)nc(N2CCOCC2)c1 (single isomer, unassigned) [Example 70, N-[2-fluoro-5-[2-(2-hydroxyethoxy)-6-(morpholin-4-yl)pyridin-4-yl]-4-methylphenyl]-6-(trifluoromethyl)-2-azabicyclo[3.1.0]hexane-2-carboxamide] | 10 to 100 nM
Cc1ccc(NC(=O)N2CC[C@@H](CC(F)(F)F)C2)cc1-c1cc(OC2CCC(C)(O)CC2)nc(N2CCOCC2)c1 (stereo partly drawn) [Example 212, (3S)-N-(3-[2-[(4-hydroxy-4-methylcyclohexyl)oxy]-6-(morpholin-4-yl)pyridin-4-yl]-4-methylphenyl)-3-(2,2,2-trifluoroethyl)pyrrolidine-1-carboxamide (trans)] | < 10 nM
Cc1cc(F)c(NC(=O)N2CCCC(N)(C(F)(F)F)C2)cc1-c1cc(OCCO)nc(N2CCOCC2)c1 (stereo not drawn) [Example 54, 3-amino-N-[2-fluoro-5-[2-(2-hydroxyethoxy)-6-(morpholin-4-yl)pyridin-4-yl]-4-methylphenyl]-3-(trifluoromethyl)piperiidne-1-carboxamide] | < 10 nM
Cc1cc(F)c(NC(=O)N2CCCC3C2C3C(F)(F)F)cc1-c1cc(OCCO)nc(N2CCOCC2)c1 (single isomer, unassigned) [Example 111, N-[2-fluoro-5-[2-(2-hydroxyethoxy)-6-(morpholin-4-yl)pyridin-4-yl]-4-methylphenyl]-7-(trifluoromethyl)-2-aabicyclo[4.1.0]heptane-2-carboxamide] | < 10 nM
Cc1ccc(NC(=O)N2CC=C(C(F)(F)F)C2)cc1-c1cc(O[C@H](C)[C@@H](C)O)nc(N2CCOCC2)c1 [Example 171, N-(3-(2-(((2R,3R)-3-hydroxybutan-2-yl)oxy)-6-morpholinopyridin-4-yl)-4-methylphenyl)-3-(trifluoromethyl)-2,5-dihydro-1H-pyrrole-1-carboxamide] | < 10 nM
Cc1ccc(NC(=O)N2CC[C@H](OC(F)(F)F)C2)cc1-c1cc(O[C@H](C)[C@@H](C)O)nc(N2CCOCC2)c1 [Example 172, (S)-N-(3-(2-(((2R,3R)-3-hydroxybutan-2-yl)oxy)-6-morpholinopyridin-4-yl)-4-methylphenyl)-3-(trifluoromethoxy)pyrrolidine-1-carboxamide] | < 10 nM
Cc1cc(F)c(NC(=O)N2CC[C@@H](C(F)(F)F)C2)cc1-c1cnc(OCCO)c(N2CCOCC2)c1 [Example 12] | < 10 nM
Cc1ccc(NC(=O)N2CC[C@H](OC(C)(F)F)C2)cc1-c1cc(OCCO)nc(N2CCOCC2)c1 [Example 140, (3S)-3-(1,1-difluoroethoxy)-N-[3-[2-(2-hydroxyethoxy)-6-(morpholin-4-yl)pyridin-4-yl]-4-methylphenyl]pyrrolidine-1-carboxamide] | < 10 nM
Cc1ccc(NC(=O)N2CC[C@H](OC(C)C)C2)cc1-c1cc(OCCO)nc(N2CCOCC2)c1 [Example 138, (3S)-N-[3-[2-(2-hydroxyethoxy)-6-(morpholin-4-yl)pyridin-4-yl]-4-methylphenyl]-3-isopropoxypyrrolidine-1-carboxamide] | < 10 nM

Second part, the compound after the results:

IC50 | Compound
< 10 nM | Cc1cc(F)c(NC(=O)N2CC[C@@]3(C2)CC3(F)F)cc1-c1cc(OCCO)nc(N2CCOCC2)c1 (single isomer, unassigned) [Example 63]
< 10 nM | Cc1ccc(NC(=O)N2CCC(CC(F)(F)F)C2)cc1-c1cc(O[C@H]2CCOC2)nc(N2CCOCC2)c1 (stereo partly drawn) [Example 188, N-(4-methyl-3-(2-morpholino-6-(((S)-tetrahydrofuran-3-yl)oxy)pyridin-4-yl)phenyl)-3-(2,2,2-trifluoroethyl)pyrrolidine-1-carboxamide]
< 10 nM | Cc1ccc(NC(=O)N2CCC(CC(F)(F)F)C2)cc1-c1cc(OCC(C)CO)nc(N2CCOCC2)c1 (stereo not drawn) [Example 199, N-(3-(2-(3-hydroxy-2-methylpropoxy)-6-morpholinopyridin-4-yl)-4-methylphenyl)-3-(2,2,2-trifluoroethyl)pyrrolidine-1-carboxamide]
1000 to 10000 nM | Cc1ccc(NC(=O)n2ccc(C(=O)C(F)(F)F)c2)cc1-c1cc(OCCO)nc(N2CCOCC2)c1 [Example 147, N-[3-[2-(2-hydroxyethoxy)-6-(morpholin-4-yl)pyridin-4-yl]-4-methylphenyl]-3-(2,2,2-trifluoroacetyl)pyrrole-1-carboxamide]
< 10 nM | Cc1ccc(NC(=O)N2CC[C@@H](CC(F)(F)F)C2)cc1-c1cc(O[C@H]2CC[C@@H](O)C2)nc(N2CCOCC2)c1 [Example 209, (3S)-N-[3-(2-[[(1S,3R)-3-hydroxycyclopentyl]oxy]-6-(morpholin-4-yl)pyridin-4-yl)-4-methylphenyl]-3-(2,2,2-trifluoroethyl)pyrrolidine-1-carboxamide]
< 10 nM | Cc1cc(F)c(NC(=O)N2CC(C)C(C(F)(F)F)C2)cc1-c1cc(OCCO)nc(N2CCOCC2)c1 (single isomer, unassigned) [Example 53, N-[2-fluoro-5-[2-(2-hydroxyethoxy)-6-(morpholin-4-yl)pyridin-4-yl]-4-methylphenyl]-3-methyl-4-(trifluoromethyl)pyrrolidine-1-carboxamide]
< 10 nM | Cc1cc(F)c(NC(=O)N2CC(F)(F)C(F)(F)C2)cc1-c1cc(OCCO)nc(N2CCOCC2)c1 [Example 22, 3,3,4,4-tetrafluoro-N-[2-fluoro-5-[2-(2-hydroxyethoxy)-6-(morpholin-4-yl)pyridin-4-yl]-4-methylphenyl]pyrrolidine-1-carboxamide]
< 10 nM | Cc1cc(F)c(NC(=O)N2CC[C@H](C(F)(F)F)C2)cc1-c1cnc(OC2CCOCC2)c(N2CCOCC2)c1 (single isomer, unassigned) [Example 32]
< 10 nM | Cc1cc(F)c(NC(=O)N2CC[C@H](CC(F)(F)F)C2)cc1-c1cc(OC[C@@H](C)O)nc(N2CCOCC2)c1 (single isomer, unassigned) [Example 183]
< 10 nM | C/C(=C1\CCN(C(=O)Nc2cc(-c3cc(OCCO)nc(N4CCOCC4)c3)c(C)cc2F)C1)C(F)(F)F [Example 94, (3Z)-N-[2-fluoro-5-[2-(2-hydroxyethoxy)-6-(morpholin-4-yl)pyridin-4-yl]-4-methylphenyl]-3-(1,1,1-trifluoropropan-2-ylidene)pyrrolidine-1-carboxamide]
< 10 nM | Cc1cc(F)c(NC(=O)N2CC[C@@H](C3CC3)C2)cc1-c1cc(OCCO)nc(N2CCOCC2)c1 (single isomer, unassigned) [Example 48]
< 10 nM | Cc1cc(F)c(NC(=O)N2CCC(C(C)C(F)(F)F)C2)cc1-c1cc(OCCO)nc(N2CCOCC2)c1 (single isomer, unassigned) [Example 100, N-[2-fluoro-5-[2-(2-hydroxyethoxy)-6-(morpholin-4-yl)pyridin-4-yl]-4-methylphenyl]-3-(1,1,1-trifluoropropan-2-yl)pyrrolidine-1-carboxamide]
10 to 100 nM | Cc1cc(F)c(NC(=O)N2CC(C(F)F)C2)cc1-c1cc(OCCO)nc(N2CCOCC2)c1 [Example 21, 3-(difluoromethyl)-N-[2-fluoro-5-[2-(2-hydroxyethoxy)-6-(morpholin-4-yl)pyridin-4-yl]-4-methylphenyl]azetidine-1-carboxamide]
